For assay [1], the target named is T1, hTLR7 (human Toll-like receptor 7) (Homo sapiens, UniProt Q9NYK1).
T1 construct: host or cells: HEK-Blue hTLR7 (HEK293-derived reporter cells)
T1 sequence (Q9NYK1 27-1049): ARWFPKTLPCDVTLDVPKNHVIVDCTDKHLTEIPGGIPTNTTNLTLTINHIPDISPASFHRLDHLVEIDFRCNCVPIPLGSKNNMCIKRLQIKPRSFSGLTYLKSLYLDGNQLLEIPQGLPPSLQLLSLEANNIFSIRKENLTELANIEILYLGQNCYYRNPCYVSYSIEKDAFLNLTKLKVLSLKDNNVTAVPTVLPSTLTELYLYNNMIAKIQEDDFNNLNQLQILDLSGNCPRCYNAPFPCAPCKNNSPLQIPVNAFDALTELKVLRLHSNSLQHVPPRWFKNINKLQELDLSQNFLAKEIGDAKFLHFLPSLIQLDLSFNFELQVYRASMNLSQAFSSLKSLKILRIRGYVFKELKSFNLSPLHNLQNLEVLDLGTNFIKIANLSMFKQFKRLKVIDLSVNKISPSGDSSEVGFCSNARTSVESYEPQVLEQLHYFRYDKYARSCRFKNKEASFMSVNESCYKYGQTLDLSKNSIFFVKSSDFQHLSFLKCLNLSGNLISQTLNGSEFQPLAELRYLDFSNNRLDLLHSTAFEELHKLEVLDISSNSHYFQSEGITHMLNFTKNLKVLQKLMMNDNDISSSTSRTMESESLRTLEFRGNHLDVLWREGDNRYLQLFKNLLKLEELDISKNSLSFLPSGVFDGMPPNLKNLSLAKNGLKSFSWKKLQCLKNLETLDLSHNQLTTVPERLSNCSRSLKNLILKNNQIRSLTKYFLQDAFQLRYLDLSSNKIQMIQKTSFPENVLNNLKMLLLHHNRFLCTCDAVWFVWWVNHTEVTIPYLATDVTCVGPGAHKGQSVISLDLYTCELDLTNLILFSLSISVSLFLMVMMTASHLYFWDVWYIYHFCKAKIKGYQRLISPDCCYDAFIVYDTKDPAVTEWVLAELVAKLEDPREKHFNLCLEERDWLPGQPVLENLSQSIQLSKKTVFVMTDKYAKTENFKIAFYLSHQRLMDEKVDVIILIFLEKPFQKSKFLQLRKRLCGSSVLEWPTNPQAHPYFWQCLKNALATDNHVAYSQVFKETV
The assay can be described thus: hTLR7 cell assay (HEK-Blue hTLR7 reporter cells). The class given is cell-based. The conditions noted are these: 24 hours, OD 650 nm. The method, then:
(§1) The payload compounds of Formula (II′) were assayed to evaluate their agonistic activity on hTLR7 (human Toll-like receptor 7) and hTLR8 (human Toll-like receptor 8). Reporter cells lines (HEK-Blue hTLR7 and HEK-Blue hTLR8) were obtained from InvivoGen. Cells were cryopreserved in liquid nitrogen per supplier's instruction. Upon test, the cells were thawed, passaged and cultured in the growth media of DMEM supplemented with 10% fetal bovine serum, 1×NEAA, 1 mM Pyruvate, 2 mM glutamine, […] in the presence of the following antibiotics, as shown as Table 1. Test compounds (at desired concentrations diluted) were added to the 96-well assay plate, 0.5 μL per well. Reporter cells were harvested from the tissue culture flasks by incubation in PBS at 37° C. for two minutes after the media in the flask is removed and cells rinsed with PBS. Cells were counted and diluted in the HEK-Blue Detection media at 50000 cells/mL and incubated for 24 hours at 37° C., in a 5% CO2 humidified incubator. Then 20 μL of cell supernatant were added to the assay plate containing the 180 µL of QUANTI-Blue, incubated for 1 hour at 37° C. Optical density at 650 nm was analyzed using an Envision (Perkin Elmer) plate reader.

Assay [2] concerns the target T2, hTLR8 (human Toll-like receptor 8) (Homo sapiens, UniProt Q9NR97).
T2 construct: host or cells: HEK-Blue hTLR8 (HEK293-derived reporter cells)
T2 sequence (Q9NR97 27-1041): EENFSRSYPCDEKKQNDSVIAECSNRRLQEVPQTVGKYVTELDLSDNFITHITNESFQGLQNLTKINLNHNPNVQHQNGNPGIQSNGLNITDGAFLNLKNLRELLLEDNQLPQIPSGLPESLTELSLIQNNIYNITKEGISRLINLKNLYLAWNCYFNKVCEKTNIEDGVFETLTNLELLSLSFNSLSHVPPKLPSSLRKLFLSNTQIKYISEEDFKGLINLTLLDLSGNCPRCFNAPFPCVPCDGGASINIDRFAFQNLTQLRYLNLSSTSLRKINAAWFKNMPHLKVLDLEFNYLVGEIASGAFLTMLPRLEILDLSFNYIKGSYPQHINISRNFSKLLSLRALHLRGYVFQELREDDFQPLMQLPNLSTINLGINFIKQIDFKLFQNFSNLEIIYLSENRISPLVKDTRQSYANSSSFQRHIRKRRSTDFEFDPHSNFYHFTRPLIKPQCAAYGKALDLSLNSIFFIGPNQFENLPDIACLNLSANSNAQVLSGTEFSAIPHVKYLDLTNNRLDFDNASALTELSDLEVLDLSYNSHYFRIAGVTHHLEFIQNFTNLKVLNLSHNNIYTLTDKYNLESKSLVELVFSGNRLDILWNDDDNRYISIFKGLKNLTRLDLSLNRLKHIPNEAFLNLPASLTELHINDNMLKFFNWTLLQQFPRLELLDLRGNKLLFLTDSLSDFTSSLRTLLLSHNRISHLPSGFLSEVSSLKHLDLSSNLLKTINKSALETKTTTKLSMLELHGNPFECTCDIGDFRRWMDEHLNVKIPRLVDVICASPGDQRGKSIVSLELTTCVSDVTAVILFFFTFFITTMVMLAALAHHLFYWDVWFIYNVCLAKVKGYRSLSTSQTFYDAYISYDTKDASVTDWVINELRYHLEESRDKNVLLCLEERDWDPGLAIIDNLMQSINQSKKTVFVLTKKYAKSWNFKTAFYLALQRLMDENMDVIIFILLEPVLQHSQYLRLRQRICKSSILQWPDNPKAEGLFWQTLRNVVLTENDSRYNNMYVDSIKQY
The assay can be described thus: hTLR8 cell assay (HEK-Blue hTLR8 reporter cells). The class given is cell-based. The settings on record: 24 hours, OD 650 nm. The method, then:
as §1

EC50 data for 18 compounds are collected here from patent publication US20250325687A1, “CONJUGATE COMPRISING TOLL-LIKE RECEPTOR AGONIST” (MABSOFT THERAPEUTICS (SHANGHAI) CO., LTD., priority 2022, published 2025).

In general, EC50 refers to the concentration that produces a half-maximal response. Low readings indicate higher potency in that assay, high ones lower potency in that assay. On to `CCOCc1nc2c(N)nc3cc(Cc4ccccc4)ccc3c2n1CC(C)(C)OCCCN` [Compound 33], for which the results for the 50% effective concentration (EC50) in assay [1] and in assay [2] were 1 to 10 µM and 5 to 20 µM, respectively.

Regarding `CCOCc1nc2c(N)nc3cc(Cc4ccc(CC(N)=O)cc4)ccc3c2n1CC(C)(C)OCCN` [Compound 27, 2-[4-({4-amino-1-[2-(2-aminoethoxy)-2-methylpropyl]-2-(ethoxymethyl)imidazo[4,5-c]quinolin-7-yl}methyl)phenyl]acetamide], the concentration for a half-maximal effect (EC50) is 1 to 10 µM in assay [1] and over 20 µM in assay [2].

For the compound `CCCCc1nc2c(N)nc3cc(Cc4ccccc4)ccc3c2n1CC(C)(C)OCCN` [Compound 31], the figures for the EC50 in assay [1] and in assay [2] were under 1 µM and under 5 µM, respectively.

As to `CCCC(C)c1nc2c(N)nc3cc(Cc4ccc(CCN)cc4)ccc3c2n1Cc1ccccc1` (stereo not drawn) [Compound 41, 7-(4-(2-aminoethyl)benzyl)-1-benzyl-2-(pentan-2-yl)-1H-imidazo[4,5-c]quinolin-4-amine], the EC50 in assay [1] is 1 to 10 µM; in assay [2] it was 5 to 20 µM.

In the case of `CCOCc1nc2c(N)nc3cc(Cc4cccc(CCN)c4)ccc3c2n1CC(C)(C)O` [Compound 5, 1-(4-amino-7-(3-(2-aminoethyl)benzyl)-2-(ethoxymethyl)-1H-imidazo[4,5-c]quinolin-1-yl)-2-methylpropan-2-ol], the EC50 was 1 to 10 µM in assay [1] and 5 to 20 µM in assay [2].

In the case of `CCOCc1nc2c(N)nc3cc(Cc4ccc(CCN)cc4)ccc3c2n1CCNS(C)(=O)=O` [Compound 34, N-(2-(4-amino-7-(4-(2-aminoethyl)benzyl)-2-(ethoxymethyl)-1H-imidazo[4,5-c]quinolin-1-yl)ethyl)methanesulfonamide], the 50% effective concentration (EC50) was over 10 µM in assay [1] and over 20 µM in assay [2].

As to `CCCC(C)c1nc2c(N)nc3cc(Cc4ccccc4)ccc3c2n1Cc1ccc(CN)cc1` (stereo not drawn) [Compound 42, 1-(4-(aminomethyl)benzyl)-7-benzyl-2-(pentan-2-yl)-1H-imidazo[4,5-c]quinolin-4-amine], the 50% effective concentration (EC50) in assay [1] was 1 to 10 µM; in assay [2] it was under 5 µM.

As to `CCOCc1nc2c(N)nc3cc(Cc4ccc(CCN)cc4)ccc3c2n1C[C@@H]1[C@@H](CO)C1(F)F` [Compound 49, ((1S,3S)-3-((4-amino-7-(4-(2-aminoethyl)benzyl)-2-(ethoxymethyl)-1H-imidazo[4,5-c]quinolin-1-yl)methyl)-2,2-difluorocyclopropyl)methanol], the figures for the EC50 in assay [1] and in assay [2] were over 10 µM and 5 to 20 µM, respectively.

As to `CCOCc1nc2c(N)nc3cc(Cc4ccc(CCN)cc4)ccc3c2n1Cc1ccc(CO)cc1` [Compound 45, (4-((4-amino-7-(4-(2-aminoethyl)benzyl)-2-(ethoxymethyl)-1H-imidazo[4,5-c]quinolin-1-yl)methyl)phenyl) methanol], the results for the concentration for a half-maximal effect (EC50) in assay [1] and in assay [2] were 1 to 10 µM and over 20 µM, respectively.

On to `CCOCc1nc2c(N)nc3cc(Cc4ccccc4)ccc3c2n1CC(C)(C)NCCN` [Compound 37, N1-(1-(4-amino-7-benzyl-2-(ethoxymethyl)-1H-imidazo[4,5-c]quinolin-1-yl)-2-methylpropan-2-yl)ethane-1,2-diamine], for which the concentration for a half-maximal effect (EC50) is over 10 µM in assay [1] and over 20 µM in assay [2].

Take `CCCC(C)c1nc2c(N)nc3cc(Cc4cccc(CCN)c4)ccc3c2n1CC(C)(C)O` (stereo not drawn) [Compound 13, 1-(4-amino-7-(3-(2-aminoethyl)benzyl)-2-(pentan-2-yl)-1H-imidazo[4,5-c]quinolin-1-yl)-2-methylpropan-2-ol]: the 50% effective concentration (EC50) in assay [1] was 1 to 10 µM; in assay [2], under 5 µM.

For the compound `CCC[C@H](C)c1nc2c(N)nc3cc(Cc4ccc(CCN)cc4)ccc3c2n1CC(C)(C)O` [Compound 10, (S)-1-(4-amino-7-(4-(2-aminoethyl)benzyl)-2-(pentan-2-yl)-1H-imidazo[4,5-c]quinolin-1-yl)-2-methylpropan-2-ol], the EC50 is over 10 µM in assay [1] and over 20 µM in assay [2].

Turning to `CCOCc1nc2c(N)nc3cc(Cc4ccccc4)ccc3c2n1CCCCN` [Compound 39, 1-(4-aminobutyl)-7-benzyl-2-(ethoxymethyl)-1H-imidazo[4,5-c]quinolin-4-amine], the EC50 is over 10 µM in assay [1] and 5 to 20 µM in assay [2].

As for `CCOCc1nc2c(N)nc3cc(Cc4ccc(CC(N)=O)cc4)ccc3c2n1CC(C)(C)O` [Compound 73, 2-(4-((4-amino-2-(ethoxymethyl)-1-(2-hydroxy-2-methylpropyl)-1H-imidazo[4,5-c]quinolin-7-yl)methyl)phenyl)acetamide], the 50% effective concentration (EC50) in assay [1] was under 1 µM; in assay [2] it was over 20 µM.

For the compound `CCCC(C)c1nc2c(N)nc3cc(Cc4cccc(CCCN)c4)ccc3c2n1CC(C)(C)O` (stereo not drawn) [Compound 14, 1-(4-amino-7-(3-(3-aminopropyl)benzyl)-2-(pentan-2-yl)-1H-imidazo[4,5-c]quinolin-1-yl)-2-methylpropan-2-ol], the EC50 lay in the range of 1 to 10 µM in assay [1] and 5 to 20 µM in assay [2].

Take `CCOCc1nc2c(N)nc3cc(Cc4ccccc4)ccc3c2n1CC(C)(C)NCCCN` [Compound 36, NJ-(1-(4-amino-7-benzyl-2-(ethoxymethyl)-1H-imidazo[4,5-c]quinolin-1-yl)-2-methylpropan-2-yl)propane-1,3-diamine]: the EC50 in assay [1] was over 10 µM; in assay [2], over 20 µM.

For `CCOCc1nc2c(N)nc3cc(Cc4ccc(CCN)cc4)ccc3c2n1CC1(O)CC1` [Compound 47, 1-((4-amino-7-(4-(2-aminoethyl)benzyl)-2-(ethoxymethyl)-1H-imidazo[4,5-c]quinolin-1-yl)methyl)cyclopropan-1-ol], the EC50 in assay [1] is over 10 µM; in assay [2], over 20 µM.

As for `CCOCc1nc2c(N)nc3cc(Cc4ccc(CCN)cc4)ccc3c2n1CC(C)(C)OCCNC(=O)C(C)C` [Compound 22, N-(2-((1-(4-amino-7-(4-(2-aminoethyl)benzyl)-2-(ethoxymethyl)-1H-imidazo[4,5-c]quinolin-1-yl)-2-methylpropan-2-yl)oxy)ethyl)isobutyramide], the values for the half-maximal effective concentration (EC50) in assay [1] and in assay [2] were 1 to 10 µM and over 20 µM, respectively.
